Common to all, as to format: cell-based
In experiment [1] the target is T1, glucagon receptor (Homo sapiens, UniProt P47871).
T1 construct: expressed in transfected cells; host or cells: HEK293
The experiment can be described thus: cAMP synthesis functional assay (firefly luciferase reporter in HEK293 cells), glucagon receptor. The conditions noted are these: for EC50: Glucagon Receptor EC50, cAMP luciferase reporter assay as in Example 16; for Glucagon Receptor relative activity: relative to the standard (Std.) EC50 of the same run.

Experiment [2] concerns the target T2, GLP-1 receptor (Homo sapiens, UniProt P43220).
T2 construct: expressed in transfected cells; host or cells: HEK293
Briefly: cAMP synthesis functional assay (firefly luciferase reporter in HEK293 cells), GLP-1 receptor. Particulars: for EC50: GLP-1 Receptor EC50, cAMP luciferase reporter assay as in Example 16; for GLP-1 Receptor relative activity: relative to the standard (Std.) EC50 of the same run.

The target of experiment [3] is T3, GIP receptor (Homo sapiens, UniProt P48546).
T3 construct: expressed in transfected cells; host or cells: HEK293
T3 sequence (P48546 22-466): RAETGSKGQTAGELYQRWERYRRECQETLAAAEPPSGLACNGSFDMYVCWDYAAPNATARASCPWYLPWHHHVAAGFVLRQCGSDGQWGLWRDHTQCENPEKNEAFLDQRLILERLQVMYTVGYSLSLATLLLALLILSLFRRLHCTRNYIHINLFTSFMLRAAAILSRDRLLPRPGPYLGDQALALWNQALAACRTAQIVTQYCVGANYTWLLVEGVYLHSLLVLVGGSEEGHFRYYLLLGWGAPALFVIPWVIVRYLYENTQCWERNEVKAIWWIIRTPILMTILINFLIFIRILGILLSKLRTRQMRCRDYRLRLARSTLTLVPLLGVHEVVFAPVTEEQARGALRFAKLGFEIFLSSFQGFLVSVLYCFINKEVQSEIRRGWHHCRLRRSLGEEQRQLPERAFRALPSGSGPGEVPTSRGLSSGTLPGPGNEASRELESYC
The experiment can be described thus: cAMP synthesis functional assay (firefly luciferase reporter in HEK293 cells), GIP receptor. Particulars: for GIP Receptor relative activity: relative to the standard (Std.) EC50 of the same run.

In experiment [4] the test system is glucagon receptor, GLP-1 receptor or GIP receptor. Briefly: Agonist profile across receptors assigned from the cAMP reporter assay data. Particulars: assigned from the in vitro EC50 data of Tables 1-4.

Experimental findings from patent US9062124B2, “GIP-based mixed agonists for treatment of metabolic disorders and obesity” (priority 2008, dated 2015) are described below.

Where a SMILES comes first, the peptide text is derived from it. [ ]: non-standard residue; d: D form. The star is where a group is joined. Octanoyl = CCCCCCCC(=O)*; Aib = CC(C)(N)C(=O)O

T2 sequence (P43220 24-463, species assumed): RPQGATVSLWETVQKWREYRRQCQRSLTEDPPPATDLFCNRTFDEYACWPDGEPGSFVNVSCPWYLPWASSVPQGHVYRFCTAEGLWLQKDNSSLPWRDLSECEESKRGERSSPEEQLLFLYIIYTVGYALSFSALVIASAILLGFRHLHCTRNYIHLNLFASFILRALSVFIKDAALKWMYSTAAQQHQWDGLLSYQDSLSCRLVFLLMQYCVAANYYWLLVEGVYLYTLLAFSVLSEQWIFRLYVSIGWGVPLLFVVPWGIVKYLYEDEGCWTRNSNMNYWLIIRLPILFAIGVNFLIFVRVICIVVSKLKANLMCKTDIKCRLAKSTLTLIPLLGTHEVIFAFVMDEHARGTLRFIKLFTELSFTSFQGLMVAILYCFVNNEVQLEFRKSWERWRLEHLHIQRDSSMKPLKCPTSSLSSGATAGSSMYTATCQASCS
T1 sequence (P47871 26-477): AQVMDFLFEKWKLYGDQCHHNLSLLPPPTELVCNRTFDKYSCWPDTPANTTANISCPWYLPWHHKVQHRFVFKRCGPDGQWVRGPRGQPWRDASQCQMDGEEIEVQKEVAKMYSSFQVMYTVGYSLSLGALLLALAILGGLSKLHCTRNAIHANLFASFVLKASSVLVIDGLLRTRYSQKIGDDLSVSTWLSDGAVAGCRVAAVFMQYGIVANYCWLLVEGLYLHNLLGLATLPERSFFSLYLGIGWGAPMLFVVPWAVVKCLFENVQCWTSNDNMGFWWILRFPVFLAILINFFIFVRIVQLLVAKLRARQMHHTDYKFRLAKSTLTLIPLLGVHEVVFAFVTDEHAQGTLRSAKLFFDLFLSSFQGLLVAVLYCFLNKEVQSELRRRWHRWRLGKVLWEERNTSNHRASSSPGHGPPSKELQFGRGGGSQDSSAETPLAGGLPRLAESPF

In the case of `CCCCCCCCCCCCCCCC(=O)NCCCC[C@H](NC(=O)[C@H](CO)NC(=O)[C@@H]1CCCN1C(=O)[C@@H]1CCCN1C(=O)[C@@H]1CCCN1C(=O)[C@H](C)NC(=O)CNC(=O)[C@H](CO)NC(=O)[C@H](CO)NC(=O)[C@@H]1CCCN1C(=O)CNC(=O)CNC(=O)[C@H](C)NC(=O)[C@H](CC(C)C)NC(=O)[C@H](CC(C)C)NC(=O)[C@H](Cc1c[nH]c2ccccc12)NC(=O)[C@H](CS)NC(=O)[C@@H](NC(=O)[C@H](Cc1ccccc1)NC(=O)[C@H](CCC(=O)O)NC(=O)C(C)(C)NC(=O)[C@H](C)NC(=O)[C@H](C)NC(=O)[C@H](CCC(N)=O)NC(=O)[C@H](CCCCN)NC(=O)[C@H](CC(=O)O)NC(=O)[C@H](CC(C)C)NC(=O)[C@H](Cc1ccc(O)cc1)NC(=O)[C@@H](NC(=O)[C@H](CO)NC(=O)[C@H](Cc1ccc(O)cc1)NC(=O)[C@H](CC(=O)O)NC(=O)[C@H](CO)NC(=O)[C@@H](NC(=O)[C@H](Cc1ccccc1)NC(=O)[C@@H](NC(=O)CNC(=O)[C@H](CCC(=O)O)NC(=O)C(C)(C)NC(=O)[C@@H](N)Cc1ccc(O)cc1)[C@@H](C)O)[C@@H](C)O)[C@@H](C)CC)C(C)C)C(N)=O` [mt-296], in experiment [1], the EC50 was determined as 0.421 nM and the “Glucagon Receptor relative activity” value was 11.34%. Further, in experiment [2], the EC50 came out at 0.0124 nM and the “GLP-1 Receptor relative activity” value stood at 130.65%. Besides, the “GIP Receptor relative activity” value in experiment [3] was determined as 211.69%. Also, the “receptor activity profile (glucagon / GLP-1 / GIP agonism)” value in experiment [4] was “exhibited activity at the GIP, GLP-1, and glucagon receptors”.

Take `CCCCCCCCCCCCCCCC(=O)NCCCC[C@H](NC(=O)[C@H](CO)NC(=O)[C@@H]1CCCN1C(=O)[C@@H]1CCCN1C(=O)[C@@H]1CCCN1C(=O)[C@H](C)NC(=O)CNC(=O)[C@H](CO)NC(=O)[C@H](CO)NC(=O)[C@@H]1CCCN1C(=O)CNC(=O)CNC(=O)[C@H](CC(N)=O)NC(=O)[C@H](CCSC)NC(=O)[C@H](CC(C)C)NC(=O)[C@H](Cc1c[nH]c2ccccc12)NC(=O)[C@H](CS)NC(=O)[C@@H](NC(=O)[C@H](Cc1ccccc1)NC(=O)[C@H](CCC(=O)O)NC(=O)C(C)(C)NC(=O)[C@H](C)NC(=O)[C@H](C)NC(=O)[C@H](CCC(N)=O)NC(=O)[C@H](CCCCN)NC(=O)[C@H](CC(=O)O)NC(=O)[C@H](CC(C)C)NC(=O)[C@H](Cc1ccc(O)cc1)NC(=O)[C@@H](NC(=O)[C@H](CO)NC(=O)[C@H](Cc1ccc(O)cc1)NC(=O)[C@H](CC(=O)O)NC(=O)[C@H](CO)NC(=O)[C@@H](NC(=O)[C@H](Cc1ccccc1)NC(=O)[C@@H](NC(=O)CNC(=O)[C@H](CCC(N)=O)NC(=O)C(C)(C)NC(=O)[C@@H](N)Cc1ccc(O)cc1)[C@@H](C)O)[C@@H](C)O)[C@@H](C)CC)C(C)C)C(N)=O` [mt-297]: the EC50 came to 0.0132 nM in experiment [1]; 0.0129 nM in experiment [2]; 0.0168 nM in experiment [3] (GIP Receptor EC50, cAMP luciferase reporter assay as in Example 16). Also, in experiment [1], the “Glucagon Receptor relative activity” value turned out to be 362.12%. The “GLP-1 Receptor relative activity” value in experiment [2] is reported as 125.58%. Besides, the “GIP Receptor relative activity” value in experiment [3] is 97.02%. Further, the “receptor activity profile (glucagon / GLP-1 / GIP agonism)” value in experiment [4] was “exhibited activity at the GIP, GLP-1, and glucagon receptors”.

As to `CCCCCCCCCCCCCC(=O)NCCCC[C@H](NC(=O)[C@H](CO)NC(=O)[C@@H]1CCCN1C(=O)[C@@H]1CCCN1C(=O)[C@@H]1CCCN1C(=O)[C@H](C)NC(=O)CNC(=O)[C@H](CO)NC(=O)[C@H](CO)NC(=O)[C@@H]1CCCN1C(=O)CNC(=O)CNC(=O)[C@H](C)NC(=O)[C@H](CC(C)C)NC(=O)[C@H](CC(C)C)NC(=O)[C@H](Cc1c[nH]c2ccccc12)NC(=O)[C@H](CS)NC(=O)[C@@H](NC(=O)[C@H](Cc1ccccc1)NC(=O)[C@H](CCC(=O)O)NC(=O)C(C)(C)NC(=O)[C@H](C)NC(=O)[C@H](C)NC(=O)[C@H](CCC(N)=O)NC(=O)[C@H](CCCCN)NC(=O)[C@H](CC(=O)O)NC(=O)[C@H](CC(C)C)NC(=O)[C@H](Cc1ccc(O)cc1)NC(=O)[C@@H](NC(=O)[C@H](CO)NC(=O)[C@H](Cc1ccc(O)cc1)NC(=O)[C@H](CC(=O)O)NC(=O)[C@H](CO)NC(=O)[C@@H](NC(=O)[C@H](Cc1ccccc1)NC(=O)[C@@H](NC(=O)CNC(=O)[C@H](CCC(=O)O)NC(=O)C(C)(C)NC(=O)[C@@H](N)Cc1ccc(O)cc1)[C@@H](C)O)[C@@H](C)O)[C@@H](C)CC)C(C)C)C(N)=O` [mt-306], in experiment [1], the EC50 was 1.5 nM and the “Glucagon Receptor relative activity” value was found to be 3.20%. Moreover, the “GLP-1 Receptor relative activity” value in experiment [2] is recorded as 80.60%. Further, the “GIP Receptor relative activity” value in experiment [3] amounted to 254.69%. Besides, the “receptor activity profile (glucagon / GLP-1 / GIP agonism)” value in experiment [4] is “exhibited activity at the GIP, GLP-1, and glucagon receptors”.

Regarding `CCCCCCCCCCCCCCCCCC(=O)NCCCC[C@H](NC(=O)[C@H](CO)NC(=O)[C@@H]1CCCN1C(=O)[C@@H]1CCCN1C(=O)[C@@H]1CCCN1C(=O)[C@H](C)NC(=O)CNC(=O)[C@H](CO)NC(=O)[C@H](CO)NC(=O)[C@@H]1CCCN1C(=O)CNC(=O)CNC(=O)[C@H](C)NC(=O)[C@H](CC(C)C)NC(=O)[C@H](CC(C)C)NC(=O)[C@H](Cc1c[nH]c2ccccc12)NC(=O)[C@H](CS)NC(=O)[C@@H](NC(=O)[C@H](Cc1ccccc1)NC(=O)[C@H](CCC(=O)O)NC(=O)C(C)(C)NC(=O)[C@H](C)NC(=O)[C@H](C)NC(=O)[C@H](CCC(N)=O)NC(=O)[C@H](CCCCN)NC(=O)[C@H](CC(=O)O)NC(=O)[C@H](CC(C)C)NC(=O)[C@H](Cc1ccc(O)cc1)NC(=O)[C@@H](NC(=O)[C@H](CO)NC(=O)[C@H](Cc1ccc(O)cc1)NC(=O)[C@H](CC(=O)O)NC(=O)[C@H](CO)NC(=O)[C@@H](NC(=O)[C@H](Cc1ccccc1)NC(=O)[C@@H](NC(=O)CNC(=O)[C@H](CCC(=O)O)NC(=O)C(C)(C)NC(=O)[C@@H](N)Cc1ccc(O)cc1)[C@@H](C)O)[C@@H](C)O)[C@@H](C)CC)C(C)C)C(N)=O` [mt-307], in experiment [1], the EC50 is 0.288 nM and the “Glucagon Receptor relative activity” value turned out to be 16.61%. Also, the “GLP-1 Receptor relative activity” value in experiment [2] is listed as 113.29%. Besides, the “GIP Receptor relative activity” value in experiment [3] amounted to 128.35%. In addition, in experiment [4], the “receptor activity profile (glucagon / GLP-1 / GIP agonism)” value is “exhibited activity at the GIP, GLP-1, and glucagon receptors”.

As for `CCCCCCCC(=O)NCCCC[C@H](NC(=O)[C@H](CO)NC(=O)[C@@H]1CCCN1C(=O)[C@@H]1CCCN1C(=O)[C@@H]1CCCN1C(=O)[C@H](C)NC(=O)CNC(=O)[C@H](CO)NC(=O)[C@H](CO)NC(=O)[C@@H]1CCCN1C(=O)CNC(=O)CNC(=O)[C@H](C)NC(=O)[C@H](CC(C)C)NC(=O)[C@H](CC(C)C)NC(=O)[C@H](Cc1c[nH]c2ccccc12)NC(=O)[C@H](CC(N)=O)NC(=O)[C@@H](NC(=O)[C@H](Cc1ccccc1)NC(=O)[C@H](CCC(=O)O)NC(=O)C(C)(C)NC(=O)[C@H](C)NC(=O)[C@H](C)NC(=O)[C@H](CCC(N)=O)NC(=O)[C@H](CCCCN)NC(=O)[C@H](CC(=O)O)NC(=O)[C@H](CC(C)C)NC(=O)[C@H](Cc1ccc(O)cc1)NC(=O)[C@@H](NC(=O)[C@H](CO)NC(=O)[C@H](Cc1ccc(O)cc1)NC(=O)[C@H](CC(=O)O)NC(=O)[C@H](CO)NC(=O)[C@@H](NC(=O)[C@H](Cc1ccccc1)NC(=O)[C@@H](NC(=O)CNC(=O)[C@H](CCC(N)=O)NC(=O)C(C)(C)NC(=O)[C@@H](N)Cc1ccc(O)cc1)[C@@H](C)O)[C@@H](C)O)[C@@H](C)CC)C(C)C)C(N)=O` [mt-323] (H-Y[Aib]QGTFTSDYSIYLDKQAA[Aib]EFVNWLLAGGPSSGAPPPSK(Octanoyl)-NH2; N-terminus assumed), in experiment [1], the EC50 stood at 0.217 nM and the “Glucagon Receptor relative activity” value was determined as 39.00%. In experiment [2], a half-maximal response (EC50) required 0.0571 nM and the “GLP-1 Receptor relative activity” value stood at 35.55%. Further, the “GIP Receptor relative activity” value in experiment [3] stood at 122.62%. The “receptor activity profile (glucagon / GLP-1 / GIP agonism)” value in experiment [4] was “exhibited activity at the GIP, GLP-1, and glucagon receptors”.
